Results published in patent US11084814B2, “Pyrido[3, 4-d]pyrimidine derivative and pharmaceutically acceptable salt thereof” (Teijin Pharma Limited, priority 2016, dated 2021).

Assays:
CDK4/cyclin D3 = target: T1, CDK4/cyclin D3 (Homo sapiens, UniProt P11802); assay: Human CDK4/cyclin D3 inhibitory activity (QS S Assist CDK4/Cyclin D3_FP Kit, IMAP fluorescent polarization); assay type: biochemical; conditions: read-out: CDK4 Activity symbol
T1 construct: purchased Carna Biosciences, Inc. QS S Assist CDK4/Cyclin D3_FP Kit
T1 sequence (P11802 whole entry): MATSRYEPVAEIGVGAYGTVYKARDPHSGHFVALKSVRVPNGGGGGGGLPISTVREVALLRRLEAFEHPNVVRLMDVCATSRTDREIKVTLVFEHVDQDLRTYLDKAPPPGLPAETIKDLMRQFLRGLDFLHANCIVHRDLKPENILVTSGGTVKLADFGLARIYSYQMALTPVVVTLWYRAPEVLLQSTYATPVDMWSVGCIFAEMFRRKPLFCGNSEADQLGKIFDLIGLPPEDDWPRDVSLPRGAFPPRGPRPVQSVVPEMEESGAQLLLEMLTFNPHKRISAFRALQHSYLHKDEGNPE
T1 sequence (P30281 whole entry partner): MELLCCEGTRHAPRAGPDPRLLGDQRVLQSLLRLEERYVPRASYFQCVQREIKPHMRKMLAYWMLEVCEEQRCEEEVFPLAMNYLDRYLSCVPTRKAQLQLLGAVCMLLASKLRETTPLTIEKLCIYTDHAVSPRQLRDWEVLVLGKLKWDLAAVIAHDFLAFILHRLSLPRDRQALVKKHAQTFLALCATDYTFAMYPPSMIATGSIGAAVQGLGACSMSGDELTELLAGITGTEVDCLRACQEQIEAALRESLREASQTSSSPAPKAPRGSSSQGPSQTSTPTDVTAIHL
Outline: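 Kinase reactions used kit CDK4/cyclin D3 at 12.5–25 ng/well with the kit ATP/substrate/metal mix in 20 mM HEPES (pH 7.4), 0.01% Tween20 and 2 mM DTT, run 45 min at room temperature. Phosphorylation was detected by IMAP fluorescence polarization (ex 485/em 535 nm) after 30 min binding in the dark. IC50 was fitted from percent inhibition against DMSO controls with and without enzyme.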

CDK2/cyclin A2 = target: T2, CDK2/cyclin A2 (Homo sapiens, UniProt P24941); assay: Human CDK2/cyclin A2 inhibitory activity (QS S Assist CDK2/Cyclin A2_FP Kit, IMAP fluorescent polarization); assay type: biochemical; conditions: read-out: CDK2 Activity symbol
T2 construct: purchased Carna Biosciences, Inc. QS S Assist CDK2/Cyclin A2_FP Kit
Outline: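 Kit CDK2/cyclin A2 (2.5 ng/well) was reacted with kit ATP/substrate/metal in 20 mM HEPES pH 7.4, 0.01% Tween 20 and 2 mM DTT for 60 min at room temperature. IMAP binding reagent was added for 30 min, then fluorescence polarization was read at 485/535 nm. IC50 came from dose-response fitting of percent inhibition.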

SMILES | IC50 (CDK4/cyclin D3) | IC50 (CDK2/cyclin A2)
C[C@@H](O)c1cc2cnc(Nc3ccc(CN4CCN(CCO)CC4)cn3)nc2c(N2CC[C@H](F)C2)n1 [Compound 181] | 10 to 100 nM | ≥ 100 nM
C[C@@H](O)c1cc2cnc(Nc3ccc(CN4CCN(CCO)CC4)cn3)nc2c(N2CC[C@@H](F)C2)n1 [Compound 182] | < 10 nM | ≥ 100 nM
C[C@H](O)CN1CCN(Cc2ccc(Nc3ncc4cc([C@@H](C)O)nc(N5CCCCC5)c4n3)nc2)CC1 [Compound 183, (S)-1-(4-((6-((6-((R)-1-hydroxyethyl)-8-(piperidin-1-yl)pyrido[3,4-d]pyrimidin-2-yl)amino)pyridin-3-yl)methyl)piperazin-1-yl)propan-2-ol] | < 10 nM | ≥ 100 nM
Cc1nc(Nc2ncc3cc([C@@H](C)O)nc(N4C5CCC4CC5)c3n2)ccc1N1CCN(C)CC1 [Compound 185] | < 10 nM | ≥ 100 nM
C[C@@H](O)c1cc2cnc(Nc3ccc(CN4CCN(C)C[C@@H]4C)cn3)nc2c(N2CCCCC2)n1 [Compound 186] | < 10 nM | ≥ 100 nM
C[C@@H](O)c1cc2cnc(Nc3ccc(CN4CCN(C)C[C@@H]4C)cn3)nc2c(N2C3CCC2CC3)n1 [Compound 187] | < 10 nM | ≥ 100 nM
C[C@@H](O)c1cc2cnc(Nc3ccc(CN4CCN(C)[C@@H](C)C4)cn3)nc2c(N2CCCCC2)n1 [Compound 188] | < 10 nM | ≥ 100 nM
C[C@@H](O)c1cc2cnc(Nc3ccc(CN4CCN(C)[C@@H](C)C4)cn3)nc2c(N2C3CCC2CC3)n1 [Compound 189] | < 10 nM | ≥ 100 nM
C[C@@H](O)c1cc2cnc(Nc3ccc(CN4CCN(CCO)CC4)cn3)nc2c(-c2ccccc2)n1 [Compound 190] | 10 to 100 nM | ≥ 100 nM
C[C@@H](O)c1cc2cnc(Nc3ccc(N4CCNCC4=O)cn3)nc2c(-c2ccccc2)n1 [Compound 191] | 10 to 100 nM | ≥ 100 nM
C[C@H](CO)c1cc2cnc(Nc3ccc(N4CCNCC4=O)cn3)nc2c(N2CCCCC2)n1 [Compound 192] | 10 to 100 nM | ≥ 100 nM
C[C@H](CO)c1cc2cnc(Nc3ccc4c(n3)CCN(CCO)C4)nc2c(N2CCCCC2)n1 [Compound 193] | 10 to 100 nM | ≥ 100 nM
C[C@@H](CO)c1cc2cnc(Nc3ccc(N4CCNCC4=O)cn3)nc2c(N2CCCCC2)n1 [Compound 194] | < 10 nM | ≥ 100 nM
C[C@H](CO)c1cc2cnc(Nc3ccc(CN4CCN(CCO)CC4)cn3)nc2c(N2CCCCC2)n1 [Compound 195] | 10 to 100 nM | ≥ 100 nM
C[C@@H](O)c1cc2cnc(Nc3ccc4c(n3)CCN(CC#N)C4)nc2c(N2CCCCC2)n1 [Compound 196] | 10 to 100 nM | ≥ 100 nM
C[C@@H](O)c1cc2cnc(Nc3ccc4c(n3)CCN(CC3COC3)C4)nc2c(N2CCCCC2)n1 [Compound 197] | 10 to 100 nM | ≥ 100 nM
C[C@@H](O)c1cc2cnc(Nc3ccc(CN4CCN(C)CC4)cn3)nc2c(N2CCC[C@@H](F)C2)n1 [Compound 198] | < 10 nM | ≥ 100 nM
C[C@@H](O)c1cc2cnc(Nc3ccc(CN4CCN(CCO)CC4)cn3)nc2c(N2CCC[C@@H](F)C2)n1 [Compound 199] | < 10 nM | ≥ 100 nM
C[C@@H](O)c1cc2cnc(Nc3ccc4c(n3)CCN(C3CN(C)C3)C4)nc2c(N2CCCCC2)n1 [Compound 200] | < 10 nM | ≥ 100 nM
C[C@@H](O)c1cc2cnc(Nc3ccc4c(n3)CN(CCO)C4)nc2c(N2CCCCC2)n1 [Compound 201] | < 10 nM | ≥ 100 nM
C[C@H](O)Cc1cc2cnc(Nc3ccc(CN4CCN(CCO)CC4)cn3)nc2c(N2CCCCC2)n1 [Compound 202] | 10 to 100 nM | ≥ 100 nM

SMILES | IC50 (CDK4/cyclin D3) | IC50 (CDK2/cyclin A2)
C[C@H](O)Cc1cc2cnc(Nc3ccc(N4CCNCC4=O)cn3)nc2c(N2CCCCC2)n1 [Compound 203] | < 10 nM | ≥ 100 nM
C[C@H](O)Cc1cc2cnc(Nc3ccc4c(n3)CCN(CCO)C4)nc2c(N2CCCCC2)n1 [Compound 204] | 10 to 100 nM | ≥ 100 nM
c1cc(Nc2ncc3cc(C4CCOC4)nc(N4C5CCC4CC5)c3n2)ncc1CN1CCNCC1 (stereo not drawn) [Compound 205] | < 10 nM | ≥ 100 nM
c1cc(Nc2ncc3cc(C4CCOC4)nc(N4CCCCC4)c3n2)ncc1CN1CCNCC1 (stereo not drawn) [Compound 206] | < 10 nM | ≥ 100 nM
c1cc(N2CCNCC2)nnc1Nc1ncc2cc(C3CCOC3)nc(N3C4CCC3CC4)c2n1 (stereo not drawn) [Compound 207] | < 10 nM | ≥ 100 nM
c1cc(N2CCNCC2)nnc1Nc1ncc2cc(C3CCOC3)nc(N3CCCCC3)c2n1 (stereo not drawn) [Compound 208] | < 10 nM | ≥ 100 nM
C[C@@H](O)c1cc2cnc(Nc3ccc4c(n3)CCN(C(=O)[C@H]3CCCN3)C4)nc2c(N2CCCCC2)n1 [Compound 209] | < 10 nM | ≥ 100 nM
C[C@@H](O)c1cc2cnc(Nc3ccc4c(n3)CCN(C(=O)[C@H]3CCNC3)C4)nc2c(N2CCCCC2)n1 [Compound 210] | < 10 nM | ≥ 100 nM
C[C@@H](O)c1cc2cnc(Nc3ccc4c(n3)CCN(C(=O)[C@H]3CCCCN3)C4)nc2c(N2CCCCC2)n1 [Compound 211] | < 10 nM | ≥ 100 nM
C[C@@H](O)c1cc2cnc(Nc3ccc4c(n3)CCN(C(=O)[C@H]3C[C@H](O)CN3)C4)nc2c(N2CCCCC2)n1 [Compound 212] | < 10 nM | ≥ 100 nM
C[C@@H](O)c1cc2cnc(Nc3ccc4c(n3)CCN(C(=O)[C@H]3C[C@@H](O)CN3)C4)nc2c(N2CCCCC2)n1 [Compound 213] | < 10 nM | ≥ 100 nM
C[C@@H](O)c1cc2cnc(Nc3ccc4c(n3)CCN(C(=O)[C@@H]3CCCNC3)C4)nc2c(N2CCCCC2)n1 [Compound 214] | < 10 nM | ≥ 100 nM
C[C@@H](O)c1cc2cnc(Nc3ccc4c(n3)CCN(C(=O)[C@H]3CCN3)C4)nc2c(N2CCCCC2)n1 [Compound 215] | < 10 nM | ≥ 100 nM
C[C@@H](O)c1cc2cnc(Nc3ccc4c(n3)CCN(C(=O)C3CNCCO3)C4)nc2c(N2CCCCC2)n1 (stereo partly drawn) [Compound 216] | < 10 nM | ≥ 100 nM
CC(O)c1cc2cnc(Nc3ccc(OC4CCN(CCO)CC4)cn3)nc2c(N2C3CCC2CC3)n1 (stereo not drawn) [Compound 218] | < 10 nM | ≥ 100 nM
C[C@@H](O)c1cc2cnc(Nc3ccc(OC4CCN(CCO)CC4)cn3)nc2c(N2CC[C@@H](F)C2)n1 [Compound 219] | < 10 nM | ≥ 100 nM
C[C@@H](O)c1cc2cnc(Nc3ccc(OC4CCNCC4)cn3)nc2c(N2C3CCC2CC3)n1 [Compound 220] | < 10 nM | ≥ 100 nM
C[C@@H](O)c1cc2cnc(Nc3ccc(OC4CCNCC4)cn3)nc2c(N2CC[C@@H](F)C2)n1 [Compound 221] | < 10 nM | ≥ 100 nM
C[C@@H](O)c1cc2cnc(Nc3ccc(OC4CCN(CCO)CC4)cn3)nc2c(N2CCC[C@H](F)C2)n1 [Compound 222] | < 10 nM | ≥ 100 nM
C[C@@H](O)c1cc2cnc(Nc3ccc4c(n3)CCN(C(=O)[C@@H]3CCCN3C)C4)nc2c(N2C3CCC2CC3)n1 [Compound 223] | < 10 nM | ≥ 100 nM
C[C@@H](O)c1cc2cnc(Nc3ccc4c(n3)CCN(C(=O)[C@H]3CCCN3C)C4)nc2c(N2C3CCC2CC3)n1 [Compound 224] | < 10 nM | ≥ 100 nM
